Measurements reported in patent US4808584A, “Quinolinecarboxylic acid derivatives and antibacterial agent containing the same” (Kanebo, Ltd., priority 1987, dated 1989).
Where a name gives a salt, the structure may show the parent alone.

Assays:
[1] = test system: Klebsiella pneumoniae PCI 602; test: Minimum inhibitory concentration (MIC); type: cell-based; conditions: Klebsiella pneumoniae, PCI602, Klebsiella pneumoniae PCI 602, Gram -; read-out: Minimum inhibitory concentration (MIC)
Method: (§1) The compounds of the present invention (A, C, E, F, G, H and I) and ofloxacin as control were dissolved in 0.1N aqueous potassium hydroxide to prepare a solution of 5000 μg/ml in concentration. The compounds of the present invention (B, D and J) were dissolved in sterilized distilled water to prepare a solution of 5000 μg/ml in concentration. Each solution was diluted with sterilized distilled water to prepare a standard solution with a concentration of each test compound: 1000 μg/ml. The test was carried out by a method approved by Japan Society of Chemotherapy [cf. Chemotherapy, 29, 76-79 (1981)(TOKYO)].

[2] = test system: Pseudomonas aeruginosa IFO 3445; test: Minimum inhibitory concentration (MIC); type: cell-based
Method: as §1

[3] = test system: Serratia marcescens IAM 1184; test: Minimum inhibitory concentration (MIC); type: cell-based
Method: as §1

[4] = test system: Streptococcus faecalis IID 682; test: Minimum inhibitory concentration (MIC); type: cell-based
Method: as §1

[5] = test system: methicillin resistant Staphylococcus aureus; test: Minimum inhibitory concentration against clinically isolated methicillin resistant Staphylococcus aureus; type: cell-based
Method: The compound (B) was dissolved in sterilized distilled water, and ofloxacin in 0.1N aqueous potassium hydroxide, to prepare a solution of 5000 μg/ml in concentration each. The above solutions were then diluted with sterilized distilled water to prepare a standard solution with a concentration of the test compound: 1000 μg/ml each. The test was carried out by a method approved by Japan Society of Chemotherapy (ibidem) to measure minimum inhibitory concentration (MIC) against 54 strains of clinically isolated methicillin resistant Staphylococcus aureus, from which there were calculated a range of MIC (MICrange) of the test compound against these resistant strains, a minimum concentration for inhibiting the growth of the strains by 50% (MIC50) and a minimum concentration for inhibiting the growth of the strains by 90% (MIC90).

[6] = test system: Staphylococcus aureus IID 803; test: Effect on treatment of general infectious disease; type: in vivo, ddY male mice; conditions: IID803, 168 h, S. aureus IID 803, 1.0×10^6 CFU/mouse i.p., oral one hour after infection, survival after one week
Method: Staphylococcus aureus IID 803 (1.0×10^6 CFU/mouse)
(§2) The test microorganisms were subjected to standing culture in Trypto-Soya Agar "Nissui" (made by Nissui Seiyaku K.K., Japan) at 37° C. for 16 to 18 hours. The culture was then diluted with PBS (Dulbecco's phosphate buffered saline) and mixed with an equivalent amount of 10% (w/v) Mucin (BACTO MUCIN BACTERIOLOGICAL, made by Difco Co.) to prepare a microorganism solution. The thus prepared microorganism solution (0.5 ml each) was intraperitoneally innoculated to ddY male mice (4 weeks age, weighing 20-22 g, 5 mice in each group), to infect the animals. One hour after the infection, the compound (B) of the present invention dissolved in sterilized distilled water or ofloxacin suspended in 0.5% (w/v) aqueous sodium carboxymethyl cellulose solution was orally adiministered to mice.
(§3) The mice were daily observed for one week, and from the survival number of mice after one week, the 50% effective dose (ED50) was calculated by Weil method.

Escherichia coli KC-14 [7] = test: Effect on treatment of general infectious disease; type: in vivo, ddY male mice; conditions: KC14, 168 h, E. coli KC-14, 1.2×10^4 CFU/mouse i.p., oral one hour after infection, survival after one week
Method: Escherichia coli KC-14 (1.2×10^4 CFU/mouse)
as §2, §3

[8] = test system: Pseudomonas aeruginosa E-2; test: Effect on treatment of general infectious disease; type: in vivo, ddY male mice; conditions: E2, 168 h, P. aeruginosa E-2, 1.6×10^4 CFU/mouse i.p., oral one hour after infection, survival after one week
Method: Pseudomonas aeruginosa E-2 (1.6×10^4 CFU/mouse)
as §2, §3

E. coli KC-14 = test: Effect on treatment of infectiousness of the genito-urinary tract; type: in vivo, ICR female mice; conditions: Escherichia coli, KC14, 48 h; E. coli KC-14, 5.6×10^5 CFU/mouse into urinary bladder; oral; not more than 10^4 living bacteria/1 g of kidney regarded as effective
Method: 2. Test microorganism and inoculum size E. coli KC-14 (5.6×10^5 CFU/mouse) 3. Method:
A microorganism solution (0.1 ml) prepared in the same manner as described in Experiment 3 was introduced into urinary bladder through urinary tract of ICR female mice (5 weeks age, weighing 20 to 22 g, 5 mice in each group), and then urinary meatus was clasped with clip for 4 hours to infect the animals. After taking off the clip, the compound (B) of the present invention dissolved in sterilized distilled water or ofloxacin suspended in 0.5% aqueous sodium carboxymethyl cellulose solution was orally administered to mice. Two days after the infection, mice kidneys were taken out and weighed, to which PBS (Dulbecco's phosphate buffered saline) was added and the mixture was homogenized. The homogenate was then diluted with PBS and inoculated onto a plate of modified Drigalski Agar (BTB lactose agar "Nissui", made by Nissui Seiyaku K.K., Japan) and cultured at 37° C. for 18 hours. The number of the colonies of infectious bacteria grown on the plate was counted. The number of living bacteria per 1 g of kidney was calculated from the number of colonies and the kidney weight. The living bacteria number/1 g of kidney of not more than 10^4 was regarded as effective and an effective dose for 50% mice (ED50) was calculated by Weil method.

ddY male mice = test: Acute toxicity (LD50); type: in vivo; conditions: oral, ddY male mice fasted for 18 hours, Weil method
Method: The compound (B) of the present invention was dissolved in sterilized distilled water and the solution was orally administered to ddY male mice (5 weeks age, weighing 20 to 25 g, 5 mice in each group), which had been fasted for 18 hours.

[9] = test system: Acinetobacter calcoaceticus AC 54; test: Minimum inhibitory concentration (MIC); type: cell-based; conditions: Acinetobacter calcoaceticus, AC54, Acinetobacter calcoaceticus AC 54, Gram -
Method: as §1

[10] = test system: Bacillus subtilis ATCC 6633; test: Minimum inhibitory concentration (MIC); type: cell-based; conditions: ATCC6633; Bacillus subtilis ATCC 6633, Gram +; read-out: Minimum inhibitory concentration (MIC)
Method: as §1

[11] = test system: Citrobacter freundii NIHJ 10018-68; test: Minimum inhibitory concentration (MIC); type: cell-based; conditions: NIHJ10018; Citrobacter freundii NIHJ 10018-68, Gram -
Method: as §1

[12] = test system: Enterobacter aerogenes ATCC 13048; test: Minimum inhibitory concentration (MIC); type: cell-based; conditions: Klebsiella aerogenes, ATCC13048, Enterobacter aerogenes ATCC 13048, Gram -
Method: as §1

Enterobacter cloacae 963 = test: Minimum inhibitory concentration (MIC); type: cell-based; conditions: Enterobacter cloacae 963, Gram -
Method: as §1

Escherichia coli KC-14 [13] = test: Minimum inhibitory concentration (MIC); type: cell-based; conditions: KC14; Escherichia coli KC-14, Gram -
Method: as §1

[14] = test system: Escherichia coli NIHJ JC-2; test: Minimum inhibitory concentration (MIC); type: cell-based; conditions: NIHJJC2; Escherichia coli NIHJ JC-2, Gram -
Method: as §1

[15] = test system: Micrococcus luteus ATCC 9341; test: Minimum inhibitory concentration (MIC); type: cell-based; conditions: ATCC9341; Micrococcus luteus ATCC 9341, Gram +
Method: as §1

[16] = test system: Morganella morganii IFO 3848; test: Minimum inhibitory concentration (MIC); type: cell-based; conditions: IFO3848; Morganella morganii IFO 3848, Gram -
Method: as §1

[17] = test system: Proteus mirabilis IFO 3849; test: Minimum inhibitory concentration (MIC); type: cell-based; conditions: IFO3849; Proteus mirabilis IFO 3849, Gram -
Method: as §1

Proteus vulgaris OX-19 = test: Minimum inhibitory concentration (MIC); type: cell-based; conditions: OX19; Proteus vulgaris OX-19, Gram -; read-out: Minimum inhibitory concentration (MIC)
Method: as §1

[18] = test system: Pseudomonas aeruginosa E-2; test: Minimum inhibitory concentration (MIC); type: cell-based; conditions: E2; Pseudomonas aeruginosa E-2, Gram -
Method: as §1

[19] = test system: Pseudomonas aeruginosa NCTC 10490; test: Minimum inhibitory concentration (MIC); type: cell-based; conditions: Pseudomonas aeruginosa, NCTC10490, Pseudomonas aeruginosa NCTC 10490, Gram -
Method: as §1

[20] = test system: Salmonella typhimurium IID 971; test: Minimum inhibitory concentration (MIC); type: cell-based; conditions: Salmonella enterica, read-out: Minimum inhibitory concentration (MIC)
Method: as §1

Shigella sonnei EW-33 = test: Minimum inhibitory concentration (MIC); type: cell-based; conditions: EW33; Shigella sonnei EW-33, Gram -
Method: as §1

[21] = test system: Staphylococcus aureus FDA 209P JC-1; test: Minimum inhibitory concentration (MIC); type: cell-based; conditions: FDA209P; Staphylococcus aureus FDA 209P JC-1, Gram +
Method: as §1

[22] = test system: Staphylococcus aureus IID 803; test: Minimum inhibitory concentration (MIC); type: cell-based; conditions: IID803; Staphylococcus aureus IID 803, Gram +; read-out: Minimum inhibitory concentration (MIC)
Method: as §1

[23] = test system: Staphylococcus epidermidis IAM-1296; test: Minimum inhibitory concentration (MIC); type: cell-based; conditions: Staphylococcus epidermidis, IAM1296, Staphylococcus epidermidis IAM-1296, Gram +
Method: as §1

CN1CCN(c2c(F)cc3c(=O)c(C(=O)O)c4scc5n4c3c2OC5)CC1 [Compound (B), 9,1-Epoxymethano-7-fluoro-8-(4-methyl-1-piperazinyl)-5-oxo-5H-thiazolo[3,2-a]quinoline-4-carboxylic acid.hydrochloride]
MIC [1]: 0.025 µg/mL
Minimum inhibitory concentration (MIC) ([2]; Pseudomonas aeruginosa IFO 3445, Gram -): 1.56 µg/mL
Minimum inhibitory concentration (MIC) ([3]; Serratia marcescens IAM 1184, Gram -): 0.39 µg/mL
Minimum inhibitory concentration (MIC) ([4]; Streptococcus faecalis IID 682, Gram +): 0.78 µg/mL
MIC ([5]; 54 strains of clinically isolated methicillin resistant Staphylococcus aureus): 0.1 to 0.39 µg/mL
MIC50 ([5]; Staphylococcus aureus, minimum concentration for inhibiting the growth of the strains by 50%, 54 strains): 0.2 µg/mL
MIC90 ([5]; Staphylococcus aureus, minimum concentration for inhibiting the growth of the strains by 90%, 54 strains): 0.2 µg/mL
ED50 [6]: 8.1 mg/kg
ED50 (Escherichia coli KC-14 [7]): 1 mg/kg
ED50 [8]: 17.7 mg/kg
ED50 (E. coli KC-14): 21.7 mg/kg
LD50 (ddY male mice): 1231 mg/kg

CCN1CCN(c2c(F)cc3c(=O)c(C(=O)O)c4scc5n4c3c2OC5)CC1 [Compound (J), 9,1-Epoxymethano-7-fluoro-8-(4-ethyl-1-piperazinyl)-5-oxo-5H-thiazolo[3,2-a]quinoline-4-carboxylic acid.hydrochloride.1/2hydrate]
MIC [9]: 0.1 µg/mL
MIC [10]: 0.1 µg/mL
MIC [11]: 0.39 µg/mL
MIC [12]: 0.1 µg/mL
MIC (Enterobacter cloacae 963): 0.1 µg/mL
MIC (Escherichia coli KC-14 [13]): 0.1 µg/mL
MIC [14]: 0.1 µg/mL
MIC [1]: 0.025 µg/mL
MIC [15]: 3.13 µg/mL
MIC [16]: 0.1 µg/mL
MIC [17]: 0.39 µg/mL
MIC (Proteus vulgaris OX-19): 0.05 µg/mL
MIC [18]: 1.56 µg/mL
MIC ([2]; Pseudomonas aeruginosa, IFO3445, Pseudomonas aeruginosa IFO 3445, Gram -): 3.13 µg/mL
MIC [19]: 0.78 µg/mL
MIC [20]: 0.05 µg/mL
MIC ([3]; Serratia marcescens, IAM1184, Serratia marcescens IAM 1184, Gram -): 0.39 µg/mL
MIC (Shigella sonnei EW-33): 0.1 µg/mL
MIC [21]: 0.2 µg/mL
MIC [22]: 0.2 µg/mL
MIC [23]: 0.39 µg/mL
MIC ([4]; Enterococcus faecalis, IID682, Streptococcus faecalis IID 682, Gram +): 0.78 µg/mL
